We go through 10 molecules from patent US11767322B2 (BRISTOL-MYERS SQUIBB COMPANY, priority 2020, dated 2023).

Experiment [1] deals with MLKL phosphorylation in HT29-L23 human colorectal adenocarcinoma cells. The experiment in a line: MLKL phosphorylation high-content assay. The experiment is classed as cell-based.
Experiment [2] addresses GST-tagged PIK3Cδ in complex with PIK3R1 (Homo sapiens, UniProt O00329). The experiment in a line: PI3Kδ HTRF binding assay. To be noted: HTRF probe displacement, 1 h at rt; read-out: PIK3CD IC50.
[3] abbreviates: Homo sapiens, 6 h, HT29-L23 cells, necroptosis induced with TNFα, SMAC mimetic and Z-VAD, 6 h, maximal inhibition defined by Nec1s, read-out: pMLKL IC50.
[4] abbreviates: Homo sapiens, Table 22, compounds of the present invention, read-out: pMLKL IC50.

SMILES strings stand for the structures. Read-outs that look alike come from different tables or passages of the source.

GST-tagged PIK3Cδ in complex with PIK3R1, sequence (O00329 whole entry): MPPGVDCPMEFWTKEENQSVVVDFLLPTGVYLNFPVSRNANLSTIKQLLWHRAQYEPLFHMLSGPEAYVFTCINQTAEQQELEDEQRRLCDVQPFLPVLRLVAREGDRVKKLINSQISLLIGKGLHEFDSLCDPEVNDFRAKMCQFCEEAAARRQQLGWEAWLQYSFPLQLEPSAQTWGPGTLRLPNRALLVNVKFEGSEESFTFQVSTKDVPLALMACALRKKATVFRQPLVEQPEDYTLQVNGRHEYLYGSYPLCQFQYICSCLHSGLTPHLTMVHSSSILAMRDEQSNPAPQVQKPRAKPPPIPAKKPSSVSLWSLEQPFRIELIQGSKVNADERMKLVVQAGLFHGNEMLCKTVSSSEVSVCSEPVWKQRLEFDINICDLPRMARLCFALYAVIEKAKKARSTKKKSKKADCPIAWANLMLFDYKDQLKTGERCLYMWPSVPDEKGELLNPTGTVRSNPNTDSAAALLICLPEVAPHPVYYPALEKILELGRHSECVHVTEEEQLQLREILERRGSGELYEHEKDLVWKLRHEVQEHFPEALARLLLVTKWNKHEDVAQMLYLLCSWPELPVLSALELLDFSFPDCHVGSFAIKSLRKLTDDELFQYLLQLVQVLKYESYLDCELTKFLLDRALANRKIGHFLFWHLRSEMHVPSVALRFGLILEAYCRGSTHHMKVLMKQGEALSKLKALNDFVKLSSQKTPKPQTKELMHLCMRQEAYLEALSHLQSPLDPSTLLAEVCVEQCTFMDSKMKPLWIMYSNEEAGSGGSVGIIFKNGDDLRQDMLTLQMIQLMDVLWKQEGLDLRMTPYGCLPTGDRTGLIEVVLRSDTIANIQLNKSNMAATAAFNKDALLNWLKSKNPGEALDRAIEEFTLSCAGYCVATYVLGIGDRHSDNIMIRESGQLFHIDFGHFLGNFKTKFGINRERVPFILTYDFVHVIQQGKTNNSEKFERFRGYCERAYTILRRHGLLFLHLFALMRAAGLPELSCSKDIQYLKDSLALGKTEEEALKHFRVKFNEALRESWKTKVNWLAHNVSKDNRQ
GST-tagged PIK3Cδ in complex with PIK3R1, sequence (P27986 whole entry partner): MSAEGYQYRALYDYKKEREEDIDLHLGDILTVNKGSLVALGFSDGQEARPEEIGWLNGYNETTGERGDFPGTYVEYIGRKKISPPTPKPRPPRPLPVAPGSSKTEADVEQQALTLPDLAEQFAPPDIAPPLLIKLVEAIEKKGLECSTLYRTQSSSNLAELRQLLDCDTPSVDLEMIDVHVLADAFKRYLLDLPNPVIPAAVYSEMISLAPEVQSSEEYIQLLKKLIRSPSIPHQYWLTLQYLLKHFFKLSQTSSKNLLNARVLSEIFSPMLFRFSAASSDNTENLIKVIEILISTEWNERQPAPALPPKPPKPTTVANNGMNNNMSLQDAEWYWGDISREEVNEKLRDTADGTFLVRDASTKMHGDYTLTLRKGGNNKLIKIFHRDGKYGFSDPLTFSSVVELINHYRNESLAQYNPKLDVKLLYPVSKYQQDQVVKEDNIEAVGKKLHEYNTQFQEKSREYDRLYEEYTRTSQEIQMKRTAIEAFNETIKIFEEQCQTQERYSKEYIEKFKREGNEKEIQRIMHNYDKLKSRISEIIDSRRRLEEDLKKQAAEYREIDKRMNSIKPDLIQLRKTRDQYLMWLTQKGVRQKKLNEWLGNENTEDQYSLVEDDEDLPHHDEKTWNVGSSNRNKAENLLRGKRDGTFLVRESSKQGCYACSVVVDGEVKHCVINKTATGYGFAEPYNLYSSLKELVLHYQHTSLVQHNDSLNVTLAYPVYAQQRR

Broadly, the IC50 is the point on the concentration scale where inhibition reaches its midpoint. On to `Nc1nc2cc(-c3ccc(Cl)c(C(=O)NCC[C@H](O)c4ccc(Cl)cc4)c3)ccn2n1` [Example 91, (S)-5-(2-amino-[1,2,4]triazolo[1,5-a]pyridin-7-yl)-2-chloro-N-(3-(4-chlorophenyl)-3-hydroxypropyl)benzamide], for which the IC50 in experiment [1] (setting [3]) was 34 nM; in experiment [2] it was 8 µM.
With `Nc1nc2cc(-c3ccc(Cl)c(C(=O)NCC[C@@H](O)c4ccc(Cl)cc4)c3)ccn2n1` [Example 90, (R)-5-(2-amino-[1,2,4]triazolo[1,5-a]pyridin-7-yl)-2-chloro-N-(3-(4-chlorophenyl)-3-hydroxypropyl)benzamide], the IC50 in experiment [1] (setting [3]) is 15 nM; in experiment [2] it was greater than 15 µM.
Turning to `Cc1cc(F)c(-c2ccn3nc(N)nc3c2)cc1C(=O)NCCC(O)c1ccc(C(F)(F)F)cc1` (single isomer, unassigned) [Example 4, 5-(2-amino-[1,2,4]triazolo[1,5-a]pyridin-7-yl)-4-fluoro-N-(3-hydroxy-3-(4-(trifluoromethyl)phenyl)propyl)-2-methylbenzamide], the IC50 was 1 nM in experiment [1] (read-out: pMLKL IC50, HT29-L23 cells, necroptosis induced with TNFα, SMAC mimetic and Z-VAD, 6 h, maximal inhibition defined by Nec1s); greater than 15 µM in experiment [2].
Consider `Cc1ccc(-c2ccn3nc(N)nc3c2)c(F)c1C(=O)NCCC(O)c1ccc(F)c(F)c1` (single isomer, unassigned) [Example 66, 3-(2-amino-[1,2,4]triazolo[1,5-a]pyridin-7-yl)-N-(3-(3,4-difluorophenyl)-3-hydroxypropyl)-2-fluoro-6-methylbenzamide], for which the IC50 in experiment [1] (setting [3]) was 1.2 nM; in experiment [1] (setting [4]), 1.2 nM; in experiment [2] it was greater than 15 µM.
`Nc1nc2cc(-c3c(F)ccc(C(=O)NCC[C@H](O)c4ccc(Cl)cc4)c3F)ccn2n1` [Example 219, (S)-3-(2-amino-[1,2,4]triazolo[1,5-a]pyridin-7-yl)-N-(3-(4-chlorophenyl)-3-hydroxypropyl)-2,4-difluorobenzamide]: the IC50 in experiment [1] (setting [3]) is 42 nM; in experiment [2], greater than 15 µM.
As for `CC(CCNC(=O)c1cc(-c2ccn3nc(N)nc3c2)ccc1Cl)c1ccccc1` (stereo not shown) [Example 92, 5-(2-amino-[1,2,4]triazolo[1,5-a]pyridin-7-yl)-2-chloro-N-(3-phenylbutyl)benzamide], the IC50 in experiment [1] (setting [3]) worked out at 11 nM; in experiment [1] (setting [4]), 11 nM; in experiment [2], 5.2 µM.
Turning to `Cc1ccc(-c2ccn3nc(N)nc3c2)c(F)c1C(=O)NCCC(=O)c1ccc(Cl)cc1` [Example 143, 3-{2-amino-[1,2,4]triazolo[1,5-a]pyridin-7-yl}-N-[3-(4-chlorophenyl)-3-oxopropyl]-2-fluoro-6-methylbenzamide], the IC50 in experiment [1] (Homo sapiens, 6 h, read-out: pMLKL IC50, HT29-L23 cells, necroptosis induced with TNFα, SMAC mimetic and Z-VAD, 6 h, maximal inhibition defined by Nec1s) is 2.4 nM; in experiment [2] it was greater than 15 µM.
Take `Cc1ccc(-c2ccn3nc(N)nc3c2)c(F)c1C(=O)NCCC(O)c1cccc(F)c1` (single isomer, unassigned) [Example 63, 3-(2-amino-[1,2,4]triazolo[1,5-a]pyridin-7-yl)-2-fluoro-N-(3-(3-fluorophenyl)-3-hydroxypropyl)-6-methylbenzamide]: the IC50 in experiment [1] (setting [3]) is 1.9 nM; in experiment [2], 13 µM.
Turning to `CC(O)(CCNC(=O)c1cc(-c2ccn3nc(N)nc3c2)ccc1Cl)c1ccccc1` (stereo not shown) [Example 93, 5-(2-amino-[1,2,4]triazolo[1,5-a]pyridin-7-yl)-2-chloro-N-(3-hydroxy-3-phenylbutyl)benzamide], the figures for the IC50 in experiment [1] (setting [3]) and in experiment [2] were 256 nM and 11 µM, respectively.
For the molecule `Cc1cc(Cl)c(-c2ccn3nc(N)nc3c2)cc1C(=O)NCC[C@H](O)c1ccc(Cl)cc1` [Example 144, (S)-5-(2-amino-[1,2,4]triazolo[1,5-a]pyridin-7-yl)-4-chloro-N-(3-(4-chlorophenyl)-3-hydroxypropyl)-2-methylbenzamide], the IC50 in experiment [1] (setting [3]) was 4.2 nM; in experiment [2], greater than 15 µM.
